According to US20250243488A1, “METHODS OF MODULATING PROGRANULIN EXPRESSION USING ANTISENSE OLIGONUCLEOTIDES TARGETING REGULATORY RNAS” (Camp4 Therapeutics Corporation, priority 2022, published 2025):
Oligonucleotides are written 5' to 3', each unit as a sugar letter and its base; * is a phosphorothioate linkage, no mark a phosphodiester; rarer units and linkages stand in square brackets, end groups in braces. Plain capitals give the bases only. e = 2'-O-(2-methoxyethyl) (MOE); l = locked nucleic acid (LNA); [5mC] = 5-methylcytosine; d = 2'-deoxy (DNA)

Columns and labels:
[1] = test system: mGrn mRNA; assay: mGrn mRNA qPCR in Neuro2a cells transfected with ASOs; assay type: cell-based, mouse; conditions: for mGRN mRNA FC: Table 14, Neuro2a, 100 nM, 48 hours, normalized to sNTC3; for 40 nM FC (mGrn mRNA) / 80 nM FC (mGrn mRNA) / 160 nM FC (mGrn mRNA): Table 16, Neuro2A, transfection
Description: 57 ASOs targeting the Grn promoter (− strand) were screened in Neuro2a cells. Neuro2a cells were transfected with 100 nM of each of the ASOs listed in Table 14 and cells were harvested 48 hours later for Grn mRNA quantification using qPCR. Housekeeping genes for normalization were Gapdh and Ppia. Relative Grn mRNA levels were normalized to mRNA extracted from cells treated with sNTC3 (steric nontargeting control).
Next, 26 ASOs based on parent ASOs CO-3544 and CO-3595 were designed with different modifications and base walking. Neuro2a cells were transfected with either […] or 160 nM of each of the ASOs listed in Table 15, and cells were harvested 48 hours later for mGrn mRNA quantification using qPCR. As controls, cells were treated with sNTC3 or no ASO. Housekeeping genes for normalization were Gapdh and Ppia. Relative Grn mRNA levels were normalized to mRNA extracted from cells treated with sNTC3.
CO-3544 was modified to include PO/PS bonds and the efficacy in upregulating mGrn mRNA was determined.
Similarly, CO-3595 was modified to include varying PO/PS internucleotide bonds and the efficacy of these ASOs in upregulating mGrn mRNA was determined in Neuro2A cells.

[2] = test system: GRN mRNA; assay: GRN mRNA qPCR in SK-N-AS cells transfected with ASOs; assay type: cell-based, human; conditions: SK-N-AS
Procedure, shortened: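 Human neuroblastoma SK-N-AS cells transfected with ASOs at increasing concentrations (20 to 160 nM in initial titrations); GRN mRNA quantified by qPCR after 48 hours. Normalized to GAPDH and PPIA, fold change relative to steric non-targeting control ASO(s) (sNTC/CO-1589, with CO-3772 and CO-1929 in some series).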

[3] = Table 12, normalized to CO-1589
[4] = Table 12, 120 nM, normalized to CO-1589
[5] = Table 13, normalized to CO-1589
[6] = Table 13, 120 nM, normalized to CO-1589
[7] = Table 4, normalized to CO-3772 and CO-1589 (sNTC1)
[8] = Table 6, normalized to CO-3772, CO-1589 and CO-1929

CO-3598: ASO targeting the Grn promoter (− strand) (antisense eT*eA*eA*eG*eA*eA*eG*e[5mC]*e[5mC]*e[5mC]*eT*e[5mC]*eA*e[5mC]*eG*eG*eA*eA*eT*eT)
mGRN mRNA FC [1]: 1.3 FC

CO-5305: CO-3595 modified to include varying PO/PS internucleotide bonds (antisense e[5mC]*e[5mC]*eT*eG*eA*eA*e[5mC]eTeGeTeAeTeGeGe[5mC]eTeG*eA*e[5mC]*e[5mC])
40 nM FC (mGrn mRNA) [1]: 1.2 FC
80 nM FC (mGrn mRNA) [1]: 1.4 FC
160 nM FC (mGrn mRNA) [1]: 1.6 FC

CO-3571: ASO targeting the Grn promoter (− strand) (antisense eG*e[5mC]*eT*eA*eT*eG*eT*eT*eG*eT*e[5mC]*eA*eT*eA*eT*eG*eA*eT*eT*e[5mC])
mGRN mRNA FC [1]: 1.4 FC

CO-3572: ASO targeting the Grn promoter (− strand) (antisense eG*e[5mC]*e[5mC]*eG*e[5mC]*e[5mC]*eA*eG*eA*eA*e[5mC]*e[5mC]*e[5mC]*eA*eA*eA*e[5mC]*e[5mC]*eA*eG)
mGRN mRNA FC [1]: 1.3 FC

CO-3583: ASO targeting the Grn promoter (− strand) (antisense eT*e[5mC]*e[5mC]*e[5mC]*e[5mC]*e[5mC]*e[5mC]*eA*eG*eT*eT*eT*eG*eA*eG*e[5mC]*e[5mC]*eA*eA*eT)
mGRN mRNA FC [1]: 1.2 FC

CO-3548: ASO targeting the Grn promoter (− strand) (antisense e[5mC]*eA*e[5mC]*eT*eT*eT*eT*e[5mC]*e[5mC]*e[5mC]*e[5mC]*e[5mC]*eG*e[5mC]*eT*eG*e[5mC]*e[5mC]*eT*e[5mC])
mGRN mRNA FC [1]: 1.5 FC

CO-3582: ASO targeting the Grn promoter (− strand) (antisense e[5mC]*eA*e[5mC]*eA*eT*e[5mC]*eT*eA*e[5mC]*eA*eG*eT*eG*e[5mC]*e[5mC]*e[5mC]*eG*eG*eT*eA)
mGRN mRNA FC [1]: 1.1 FC

CO-5313: CO-3595 modified to include varying PO/PS internucleotide bonds (antisense e[5mC]*e[5mC]*eTeGeAeAe[5mC]eT*eG*eT*eA*eT*eG*eG*e[5mC]*eT*eG*eA*e[5mC]*e[5mC])
40 nM FC (mGrn mRNA) [1]: 1.3 FC
80 nM FC (mGrn mRNA) [1]: 1.4 FC
160 nM FC (mGrn mRNA) [1]: 1.5 FC

CO-3555: ASO targeting the Grn promoter (− strand) (antisense e[5mC]*eT*e[5mC]*eT*eT*eG*eT*e[5mC]*e[5mC]*eG*eT*eA*e[5mC]*eT*eT*e[5mC]*e[5mC]*e[5mC]*eA*e[5mC])
mGRN mRNA FC [1]: 1.5 FC

CO-3556: ASO targeting the Grn promoter (− strand) (antisense eA*eG*eG*eA*e[5mC]*eA*eG*eG*eA*eA*e[5mC]*e[5mC]*eA*e[5mC]*e[5mC]*e[5mC]*e[5mC]*eA*e[5mC]*eT)
mGRN mRNA FC [1]: 1.3 FC

CO-3551: ASO targeting the Grn promoter (− strand) (antisense eG*e[5mC]*eG*eT*eG*eA*eT*eG*eG*e[5mC]*eT*eG*eA*eG*eT*e[5mC]*e[5mC]*e[5mC]*eT*eG)
mGRN mRNA FC [1]: 1.5 FC

CO-3587: ASO targeting the Grn promoter (− strand) (antisense eT*eA*e[5mC]*e[5mC]*e[5mC]*eA*eA*eG*eG*eA*eA*eA*eG*eG*eA*eT*eT*e[5mC]*eA*e[5mC])
mGRN mRNA FC [1]: 1.9 FC

CO-3562: ASO targeting the Grn promoter (− strand) (antisense eG*e[5mC]*e[5mC]*eT*eG*eT*eG*e[5mC]*eA*eA*eT*eT*eG*eA*eGeG*eG*eT*e[5mC]*e[5mC])
mGRN mRNA FC [1]: 1.1 FC

CO-3559: ASO targeting the Grn promoter (− strand) (antisense eG*eT*eT*eG*eT*eA*eG*eA*eG*eA*e[5mC]*eA*e[5mC]*e[5mC]*eT*e[5mC]*e[5mC]*e[5mC]*e[5mC]*eG)
mGRN mRNA FC [1]: 1.4 FC

CO-5310: CO-3595 modified to include varying PO/PS internucleotide bonds (antisense e[5mC]*e[5mC]*eTeGeAeAe[5mC]eTeGeTeAeTeGeG*e[5mC]*eT*eG*eA*e[5mC]*e[5mC])
40 nM FC (mGrn mRNA) [1]: 1.1 FC
80 nM FC (mGrn mRNA) [1]: 1.1 FC
160 nM FC (mGrn mRNA) [1]: 1.3 FC

CO-6517: ASO based on parent ASO CO-3462 (antisense eT*eA*eGeGeAeGeAeAeTe[5mC]eGe[5mC]eTeTeTeGeG*eG*eA*eG)
30 nM FC (GRN mRNA) [2, 3]: 1.2 FC
60 nM FC (GRN mRNA) [2, 3]: 2.3 FC
120 nM FC (GRN mRNA) [2, 4]: 2.0 FC

CO-6388: ASO based on parent ASO CO-3462 (antisense eT*eA*eG*eG*eA*lG*dA*dA*lT*d[5mC]*dG*l[5mC]*dT*dT*lT*eG*eG*eG*eA*eG)
30 nM FC (GRN mRNA) [2, 3]: 1.1 FC
60 nM FC (GRN mRNA) [2, 3]: 1.0 FC
120 nM FC (GRN mRNA) [2, 4]: 1.4 FC

CO-6401: ASO based on parent ASO CO-3462 (antisense eG*eT*eA*eG*eG*dA*dG*dA*eA*dT*d[5mC]*dG*d[5mC]*eT*dT*dT*dG*eG*eG*eA*eG*e[5mC])
30 nM FC (GRN mRNA) [2, 3]: 1.2 FC
60 nM FC (GRN mRNA) [2, 3]: 1.5 FC
120 nM FC (GRN mRNA) [2, 4]: 1.7 FC

CO-6423: ASO based on parent ASOs CO-4363 and CO-4364 (eG*eG*eA*e[5mC]*lT*eT*eG*eG*eG*lA*eG*eT*eG*eG*lT*eG*eA*e[5mC]*eT*lG*eA*eA*e[5mC])
30 nM FC (GRN mRNA) [2, 5]: 1.2 FC
60 nM FC (GRN mRNA) [2, 5]: 2.6 FC
120 nM FC (GRN mRNA) [2, 6]: 2.8 FC

CO-6392: ASO based on parent ASO CO-3462 (antisense eT*eA*eG*lG*eA*lG*eA*lA*eT*l[5mC]*eG*l[5mC]*eT*lT*eT*lG*eG*lG*eA*eG)
30 nM FC (GRN mRNA) [2, 3]: 1.0 FC
60 nM FC (GRN mRNA) [2, 3]: 0.8 FC
120 nM FC (GRN mRNA) [2, 4]: 1.0 FC

CO-4362: longer ASO based on CO-3423 (antisense eG*eA*e[5mC]*eT*eT*dG*dG*dG*eA*dG*dT*eG*dG*dT*dG*eA*e[5mC]*eT*eG*eA)
30 nM FC (GRN mRNA) [2, 7]: 1.1 FC
60 nM FC (GRN mRNA) [2, 7]: 1.1 FC
120 nM FC (GRN mRNA) ([2]; Table 4, 120 nM, normalized to CO-3772 and CO-1589 (sNTC1)): 1.4 FC

CO-4626: ASO designed to target intergenic enhancers (eRNA) (antisense e[5mC]*e[5mC]*eT*e[5mC]*eA*eT*eG*eT*eA*eT*eG*eT*eA*eA*eT*eT*eG*e[5mC]*e[5mC]*e[5mC])
hGRN mRNA FC ([2]; Table 9, 120 nM, 48 hours post-transfection, normalized to CO-1589): 1.0 FC

CO-6427: ASO based on parent ASOs CO-4363 and CO-4364 (eG*eG*eG*eA*e[5mC]*eT*eT*eG*eG*eG*eA*eG*eT*eG*eG*eT*eG*eA*e[5mC]*eT*eG*eA*eA*e[5mC]*e[5mC])
30 nM FC (GRN mRNA) [2, 5]: 1.2 FC
60 nM FC (GRN mRNA) [2, 5]: 1.1 FC
120 nM FC (GRN mRNA) [2, 6]: 1.2 FC

CO-6404: ASO based on parent ASO CO-3462 (antisense eG*eG*eT*eA*eG*eG*eA*eG*eA*eA*eT*e[5mC]*eG*e[5mC]*eT*eT*eT*eG*eG*eG*eA*eG*e[5mC]*eA)
30 nM FC (GRN mRNA) [2, 3]: 1.3 FC
60 nM FC (GRN mRNA) [2, 3]: 1.3 FC
120 nM FC (GRN mRNA) [2, 4]: 1.5 FC

CO-6398: ASO based on parent ASO CO-3462 (antisense eT*eA*eG*eG*lA*eG*eA*eA*eT*l[5mC]*eG*e[5mC]*eT*eT*lT*eG*eG*eG*eA*eG)
30 nM FC (GRN mRNA) [2, 3]: 1.3 FC
60 nM FC (GRN mRNA) [2, 3]: 1.5 FC
120 nM FC (GRN mRNA) [2, 4]: 1.8 FC

CO-4456: mixed PO/PS bond version of CO-3431 (antisense eA*eT*eTeGe[5mC]eAeG*eT*eG*eA*e[5mC]*eG*e[5mC]*e[5mC]e[5mC]e[5mC]eGeT*eT*eA)
30 nM FC (GRN mRNA) [2, 8]: 0.7 FC
60 nM FC (GRN mRNA) [2, 8]: 0.5 FC
120 nM FC (GRN mRNA) ([2]; Table 6, 120 nM, normalized to CO-3772, CO-1589 and CO-1929): 0.4 FC
